A short description of the assay: Ki apparent against Clostridium perfringens neuraminidase was determined. The note with it: read-out: Ki app.

In the case of `CC(=O)NC1C(O)CC(Oc2ccccc2C(F)F)(C(=O)O)OC1[C@H](O)[C@H](O)CO` (stereo partly specified), the Ki came out at 150 µM.

Source of the values: ChEMBL document CHEMBL1126357, “Synthesis of sodium salt of ortho-(difluoromethyl)phenyl--ketoside of N-acetylneuraminic acid : a mechanism-based inhibitor of Clostridium perfringens neuraminidase” (Bioorg Med Chem Lett, 1992).
